The target in one experiment is T1, F1F0-ATPase (Bos taurus, UniProt P13621).
T1 construct: from tissue; host or cells: bovine sub-mitochondrial particles (SMPs)
Kind of experiment: Inhibition of ATP synthesis and hydrolysis by the F1F0-ATPase. In kind it is biochemical. The procedure:
(§1) The compounds listed in Table 4 were tested for activity against F1F0-ATPase and cytotoxicity in Ramos cells. Inhibition of ATP synthesis and hydrolysis by the F1F0-ATPase was measured as described in K. M. Johnson et al., Chemistry & Biology 2005, 12, 485-496. Cytotoxicity in Ramos cells was measured as described in K. M. Johnson et al., Chemistry & Biology 2005, 12, 485-496, or using the alamarBlue™ Assay with fluorescence detection (U.S. Pat. No. 5,501,959) as supplied and described by Invitrogen (Carlsbad, Calif.).

The next experiment deals with Ramos cells. Description: Cytotoxicity in Ramos cells. The class given is cell-based. The note with it: Homo sapiens; cytotoxicity in Ramos cells; read-out: Ramos Cell EC50. The procedure:
as §1

In general, IC50 refers to the point on the concentration scale where inhibition reaches its midpoint. A high value points to a need for much substance. What is called EC50 is the concentration at which the effect is half-maximal. Take `O=C1Nc2ccc(Cl)cc2C(c2ccc3[nH]c(=O)[nH]c3c2)=NC1Cc1ccccc1Cl` (centres unmarked) [Compound 41, (Z)-7-chloro-3-(2-chlorobenzyl)-5-(2-oxo-2,3-dihydro-1H-benzo[d]imidazol-5-yl)-1H-benzo[e][1,4]diazepin-2(3H)-one]: the IC50 on F1F0-ATPase was less than 5 µM. For the same molecule, the EC50 in the experiment on Ramos cells is less than 5 µM.

Values taken from patent US8242109B2, “Compositions and methods relating to novel compounds and targets thereof” (priority 2007, dated 2012).
